# Measured values reported in article PMC12023841, “Unlocking the Gates: A Novel Diagnostic Molecule for Quantifying Efflux Levels in Gram‐Positive Bacteria” (Advanced Healthcare Materials, 2025).
# “And” between values parts separate entries of the source, which are not always exact repeats. Identical values can stand only once. “Also recorded” adds a separate entry of the source. Like-named read-outs stand apart in the source and are kept apart here.
# Key:
# [1] = test system: HaCaT keratinocytes cells; test: Micronucleus assay; assay type: cell-based, Human
# [2] = Fluorescence intensity measurement of phenazinium derivatives; assay type: physicochemical; settings: 1 µg mL^−1
# Procedure: A stock solution of synthesized phenazinium compounds (10 mg mL^-1) was prepared in DMSO solvent. […] An aliquot (100 μL) of this working stock was then added to the black flat bottomed, half-area, 96-well microplates (CELLSTAR, Greiner Bio-One, France). The plate was then placed on a fluorescence spectrometer (Tecan, Infinite […], Lyon, France) and scanned for emission spectra (560-800 nm) at a constant excitation […].
# [3] = test system: Staphylococcus aureus ATCC 25923 (Reference, basal); test: MIC, broth microdilution (CLSI); assay type: cell-based; settings: ATCC25923
# [4] = Solution‐state stability test in MH‐II broth; assay type: physicochemical; settings: 512–1 µg mL^−1, 37 °C for a day, centrifuged
# Procedure: Before accessing the minimal inhibitory concentration (MIC), each phenazinium derivative was subjected to a solution‐state stability test. For this experiment, each derivative was solubilized in DMSO to achieve a primary stock solution (20 mg mL^−1). This stock was further diluted in MilliQ to achieve a working stock solution (10 mg mL^−1). […] The tubes were placed in an incubator at 37 °C for a day and later centrifuged at 25 000 rpm for 25 min.
# [5] = test system: SA 1199‐B (norA overexpressing); test: microbe, parasite or virus in culture; assay type: cell-based, Staphylococcus aureus; settings: from Table 1
# [6] = test system: SA 1199 (Wild‐type, basal); test: MIC, broth microdilution (CLSI); assay type: cell-based; settings: Staphylococcus aureus
# [7] = test system: Staphylococcus aureus efflux mutants and clinical strains
# [8] = In-vitro cytotoxicity test, Neutral Red uptake; assay type: cell-based, Human; settings: human, HaCaT keratinocytes, 24 hours, read-out: Cell viability (% as compared to the negative control), replicates
# Procedure: (§1) Method: The in-vitro cytotoxicity test assessed cell viability based on Neutral Red uptake, a dye that accumulates in lysosomes and decreases in response to membrane damage. HaCaT keratinocytes were cultured in DMEM with 10% calf serum and incubated at 37°C, 5% CO₂. Cells were seeded in 96-well plates, treated with eight concentrations of the 5a4, and incubated for 24 hours. After washing, cells were exposed to Neutral Red medium for 3 hours, followed by washing and destaining. Optical density (OD540) was measured using a fluorescence reader, and IC50 values were calculated using Phototox Version 2.0, comparing treated wells to untreated controls.^[10]
# [9] = test system: HaCaT keratinocytes cells; test: In-vitro cytotoxicity test, Neutral Red uptake; assay type: cell-based, Human
# Procedure: as §1
# [10] = 0.025 µg/ml, with UVA/visible Irradiation
# [11] = 0.05 µg/ml, with UVA/visible Irradiation
# [12] = 0.1 µg/ml, with UVA/visible Irradiation
# [13] = 0.25 µg/ml, with UVA/visible Irradiation
structure (smiles),measurement,setting,value
CCCCNc1ccc2nc3cc(NCCOC)c(N)cc3[n+](CCC)c2c1 [5a4],genotoxicity (in words),[1],no clear genotoxicity
same,% PI (Proliferative Index),[1]; [10],99.2%
same,MNC (micronucleated cells),[1]; [10],"11 ± 1.4 per 1,000"
same,% PI (Proliferative Index),"[1]; 0.025 µg/ml, without S9 mix",99.8%
same,MNC (micronucleated cells),"[1]; 0.025 µg/ml, without S9 mix","9 ± 1.4 per 1,000"
same,% PI (Proliferative Index),[1]; [11],94.6%
same,MNC (micronucleated cells),[1]; [11],"9 ± 2.1 per 1,000"
same,% PI (Proliferative Index),"[1]; 0.05 µg/ml, without S9 mix",88.2%
same,MNC (micronucleated cells),"[1]; 0.05 µg/ml, without S9 mix","8.5 ± 0.7 per 1,000"
same,% PI (Proliferative Index),[1]; [12],92.1%
same,MNC (micronucleated cells),[1]; [12],"9.5 ± 0.7 per 1,000"
same,% PI (Proliferative Index),"[1]; 0.1 µg/ml, without S9 mix",78.5%
same,MNC (micronucleated cells),"[1]; 0.1 µg/ml, without S9 mix","11 ± 1.4 per 1,000"
same,% PI (Proliferative Index),[1]; [13],89.2%
same,MNC (micronucleated cells),[1]; [13],"11.5 ± 2.1 per 1,000"
same,% PI (Proliferative Index),"[1]; 0.25 µg/ml, without S9 mix",56.1%
same,MNC (micronucleated cells),"[1]; 0.25 µg/ml, without S9 mix","10 ± 1.4 per 1,000"
same,% PI (Proliferative Index),"[1]; 0.5 µg/ml, with UVA/visible Irradiation",TOXIC
same,% PI (Proliferative Index),"[1]; 0.5 µg/ml, without S9 mix",TOXIC
same,MNC (micronucleated cells),"[1]; 0.5 µg/ml, without S9 mix",TOXIC
same,phototoxicity (in words),[1]; UVA/visible light exposure,Slight phototoxicity
same,fluorescence intensity (rank among derivatives),[2],maximum fluorescence intensity
same,MIC,[3],2 µg/mL
same,Efflux detection method 5a4,S. epidermidis strains; […],Negative
same,Efflux detection method 5a4,S. epidermidis strains; strain ATCC12228,Negative
same,Efflux detection method 5a4,S. epidermidis strains; strain ATCC12228_EtBr,Positive
same,Efflux detection method 5a4,S. epidermidis strains; strain BIOS-V24,Negative
same,Efflux detection method 5a4,S. epidermidis strains; strain BIOS-V282,Positive
same,Solution state stability (concentration at which visible precipitation was observed),[4],excellent solubility and stability; also recorded: Stable
same,"MIC difference between NorA wild‐type, overexpressing and deleted mutants",[5],fourfold or greater difference
same,MIC,[6],2 µg/mL
same,Efflux detection method 5a4,[7]; strain ATCC25923,Negative
same,Efflux detection method 5a4,[7]; strain ATCC25923_EtBr,Positive
same,Efflux detection method 5a4,[7]; strain BIOS-H1,Negative
same,Efflux detection method 5a4,[7]; strain BIOS-H2,Negative
same,Efflux detection method 5a4,[7]; strain BIOS-H3,Negative
same,Efflux detection method 5a4,[7]; strain BIOS-H5,Negative
same,Efflux detection method 5a4,[7]; strain BIOS-H6,Negative
same,Efflux detection method 5a4,[7]; strain BIOS-H12,Negative
same,Efflux detection method 5a4,[7]; strain BIOS-H13,Negative
same,Efflux detection method 5a4,[7]; strain BIOS-H17,Negative
same,Efflux detection method 5a4,[7]; strain BIOS-H20,Negative
same,Efflux detection method 5a4,[7]; strain BIOS-H21,Negative
same,Efflux detection method 5a4,[7]; strain BIOS-H22,Negative
same,Efflux detection method 5a4,[7]; strain BIOS-H25,Negative
same,Efflux detection method 5a4,[7]; strain BIOS-H28,Negative
same,Efflux detection method 5a4,[7]; strain BIOS-H29,Negative
same,Efflux detection method 5a4,[7]; strain BIOS-H30,Negative
same,Efflux detection method 5a4,[7]; strain BIOS-H32,Negative
same,Efflux detection method 5a4,[7]; strain BIOS-V21,Negative
same,Efflux detection method 5a4,[7]; strain BIOS-V31,Negative
same,Efflux detection method 5a4,[7]; strain BIOS-V60,Negative
same,Efflux detection method 5a4,[7]; strain BIOS-V61,Negative
same,Efflux detection method 5a4,[7]; strain BIOS-V62,Negative
same,Efflux detection method 5a4,[7]; strain BIOS-V74,Negative
same,Efflux detection method 5a4,[7]; strain BIOS-V75,Negative
same,Efflux detection method 5a4,[7]; strain BIOS-V85,Negative
same,Efflux detection method 5a4,[7]; strain BIOS-V118,Negative
same,Efflux detection method 5a4,[7]; strain BIOS-V128,Negative
same,Efflux detection method 5a4,[7]; strain BIOS-V147,Negative
same,Efflux detection method 5a4,[7]; strain BIOS-V151,Negative
same,Efflux detection method 5a4,[7]; strain BIOS-V156,Negative
same,Efflux detection method 5a4,[7]; strain BIOS-V157,Negative
same,Efflux detection method 5a4,[7]; strain BIOS-V158,Negative
same,Efflux detection method 5a4,[7]; strain BIOS-V203,Negative
same,Efflux detection method 5a4,[7]; strain BIOS-V245,Negative
same,Efflux detection method 5a4,[7]; strain BIOS-V250,Negative
same,Efflux detection method 5a4,[7]; strain BIOS-V257,Negative
same,Efflux detection method 5a4,[7]; strain BIOS-V279,Negative
same,Efflux detection method 5a4,[7]; strain BIOS-V295,Negative
same,Efflux detection method 5a4,[7]; strain SA-1199,Negative
same,Efflux detection method 5a4,[7]; strain SA-1199B,Positive
same,Efflux detection method 5a4,[7]; strain SA-K1712,Negative
same,Efflux detection method 5a4,[7]; strain SA-K1748,Positive
same,Efflux detection method 5a4,[7]; strain SA-K1758,Negative
same,Efflux detection method 5a4,[7]; strain SM 1,Positive
same,Efflux detection method 5a4,[7]; strain SM 2,Negative
same,Efflux detection method 5a4,[7]; strain SM 3,Negative
same,Efflux detection method 5a4,[7]; strain SM 4,Negative
same,Efflux detection method 5a4,[7]; strain SM 5,Negative
same,Efflux detection method 5a4,[7]; strain SM 6,Negative
same,Efflux detection method 5a4,[7]; strain SM 7,Negative
same,Efflux detection method 5a4,[7]; strain SM 8,Negative
same,"viability at 24 h, 0.00025 µg/ml",[8]; 0.00025 µg/ml,> 96%
same,"viability at 24 h, 0.0005 µg/ml",[8]; 0.0005 µg/ml,98.9%
same,"viability at 24 h, 0.001 µg/ml",[8]; 0.001 µg/ml,87.3%
same,"viability at 24 h, 0.025 µg/ml",[8]; 0.025 µg/ml,80%
same,"viability at 24 h, 0.05 µg/ml",[8]; 0.05 µg/ml,66.6%
same,"viability at 24 h, 0.1 µg/ml",[8]; 0.1 µg/ml,57.8%
same,"viability at 24 h, 0.25 µg/ml",[8]; 0.25 µg/ml,43.4%
same,"viability at 24 h, 0.5 µg/ml",[8]; 0.5 µg/ml,37.3%
same,"viability at 24 h, 1 µg/ml",[8]; 1 µg/ml,11.6%
same,"viability at 24 h, 2.5 µg/ml",[8]; 2.5 µg/ml,~7.91%
same,cytotoxicity on HaCaT (in words),[9],dose‐dependent cytotoxicity
same,"Cell viability (% as compared to the negative control), replicates","[9]; 0.00025 µg/ml, 24 hours",98.73% and 100.16% and 98.52%
same,"Cell viability (% as compared to the negative control), replicates","[9]; 0.0005 µg/ml, 24 hours",98.86% and 96.05%
same,"Cell viability (% as compared to the negative control), replicates","[9]; 0.001 µg/ml, 24 hours",86.83% and 87.15%
same,"Cell viability (% as compared to the negative control), replicates","[9]; 0.025 µg/ml, 24 hours",80.96% and 90.16%
same,"Cell viability (% as compared to the negative control), replicates","[9]; 0.05 µg/ml, 24 hours",71.87% and 67.22%
same,"Cell viability (% as compared to the negative control), replicates","[9]; 0.1 µg/ml, 24 hours",60.91% and 61.94%
same,"Cell viability (% as compared to the negative control), replicates","[9]; 0.25 µg/ml, 24 hours",43.67% and 45.37%
same,"Cell viability (% as compared to the negative control), replicates","[9]; 0.5 µg/ml, 24 hours",36.42% and 39.37%
same,"Cell viability (% as compared to the negative control), replicates","[9]; 1 µg/ml, 24 hours",8.29% and 13.84%
same,"Cell viability (% as compared to the negative control), replicates","[9]; 2.5 µg/ml, 24 hours",7.17% and 8.13%
same,IC50,"[9]; Homo sapiens, HaCaT, Neutral Red uptake, 24 hours, read-out: IC50 (HaCaT cell viability)",0.1 to 0.25 µg/mL
